According to ChEMBL document CHEMBL5696442, “Discovery of type II inhibitors of TGFβ-activated kinase 1 (TAK1) and mitogen-activated protein kinase kinase kinase kinase 2 (MAP4K2)” (J Med Chem, 2015):
Active and inactive are the calls of the source. The calls are words filed in the database; no cut-off is given here.

Legend:
[1] = biological target: T1, Inhibitor of nuclear factor kappa-B kinase subunit epsilon (Homo sapiens) (UniProt Q14164); experiment: Inhibition of IKK-epsilon (unknown origin) at 10 uM by Ambit Kinomescan binding assay
T1 sequence (whole entry): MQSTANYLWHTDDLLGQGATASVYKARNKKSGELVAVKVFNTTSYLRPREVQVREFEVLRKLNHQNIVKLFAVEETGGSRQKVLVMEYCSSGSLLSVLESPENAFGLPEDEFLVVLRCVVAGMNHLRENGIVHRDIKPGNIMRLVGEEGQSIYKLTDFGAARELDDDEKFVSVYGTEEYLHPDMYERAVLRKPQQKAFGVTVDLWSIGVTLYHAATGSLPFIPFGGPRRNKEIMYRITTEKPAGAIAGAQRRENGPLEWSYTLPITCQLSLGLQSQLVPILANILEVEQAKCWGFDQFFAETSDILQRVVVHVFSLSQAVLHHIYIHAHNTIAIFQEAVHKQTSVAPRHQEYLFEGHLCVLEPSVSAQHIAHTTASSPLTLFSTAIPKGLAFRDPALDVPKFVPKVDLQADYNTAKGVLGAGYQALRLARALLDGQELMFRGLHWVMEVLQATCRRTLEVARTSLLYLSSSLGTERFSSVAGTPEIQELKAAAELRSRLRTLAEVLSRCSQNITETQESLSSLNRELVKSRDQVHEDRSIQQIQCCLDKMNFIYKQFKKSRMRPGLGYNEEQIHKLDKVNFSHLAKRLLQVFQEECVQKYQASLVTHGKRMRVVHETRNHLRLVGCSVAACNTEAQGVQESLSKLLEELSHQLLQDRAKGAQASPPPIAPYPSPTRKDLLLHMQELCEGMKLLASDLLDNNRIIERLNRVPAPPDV

[2] = biological target: Cyclin-dependent kinase 18 (Homo sapiens) (UniProt Q07002); experiment: Inhibition of PCTK3 (unknown origin) at 10 uM by Ambit Kinomescan binding assay relative to control
[3] = biological target: Interleukin-1 receptor-associated kinase 1 (Homo sapiens) (UniProt P51617); experiment: Inhibition of IRAK1 Lys2 labeling site in human A-375 cells at 0.5 uM by KiNativ Profiling analysis relative to control; type: cell-based
[4] = biological target: Serine/threonine-protein kinase 24 (Homo sapiens) (UniProt Q9Y6E0); experiment: Inhibition of MST3 K2 labeling site harbouring DIKAANVLLSEHGEVK in human Huh-7 cells at 1 uM by KiNativ Profiling analysis relative to control; type: cell-based
[5] = biological target: Epithelial discoidin domain-containing receptor 1 (Homo sapiens) (UniProt Q08345); experiment: Inhibition of DDR1 (unknown origin) at 10 uM by Ambit Kinomescan binding assay; values are per cent of control
[6] = biological target: Serine/threonine-protein kinase MARK2 (Homo sapiens) (UniProt Q7KZI7); experiment: Inhibition of MARK2 (unknown origin) at 1 uM by Ambit Kinomescan binding assay relative to control
[7] = biological target: T2, Serine/threonine-protein kinase STK11 (Homo sapiens) (UniProt Q15831); experiment: Inhibition of LKB1 Lys2 labeling site in human Huh-7 cells at 1 uM by KiNativ Profiling analysis relative to control; type: cell-based
T2 sequence (whole entry): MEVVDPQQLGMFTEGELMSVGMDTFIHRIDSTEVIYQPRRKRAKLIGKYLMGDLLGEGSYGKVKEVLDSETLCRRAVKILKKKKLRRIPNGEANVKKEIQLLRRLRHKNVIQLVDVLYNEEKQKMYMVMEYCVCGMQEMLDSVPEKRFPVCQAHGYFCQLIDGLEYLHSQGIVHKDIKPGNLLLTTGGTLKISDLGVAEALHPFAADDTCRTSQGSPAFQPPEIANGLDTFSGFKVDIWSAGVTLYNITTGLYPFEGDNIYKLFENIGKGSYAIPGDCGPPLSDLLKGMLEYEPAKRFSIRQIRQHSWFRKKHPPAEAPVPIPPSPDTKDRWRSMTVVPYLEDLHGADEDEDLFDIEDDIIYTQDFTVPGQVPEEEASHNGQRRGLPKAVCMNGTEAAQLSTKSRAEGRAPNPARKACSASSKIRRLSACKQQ

Interleukin-1 receptor-associated kinase 1 (Homo sapiens), sequence (P51617 whole entry, looked up): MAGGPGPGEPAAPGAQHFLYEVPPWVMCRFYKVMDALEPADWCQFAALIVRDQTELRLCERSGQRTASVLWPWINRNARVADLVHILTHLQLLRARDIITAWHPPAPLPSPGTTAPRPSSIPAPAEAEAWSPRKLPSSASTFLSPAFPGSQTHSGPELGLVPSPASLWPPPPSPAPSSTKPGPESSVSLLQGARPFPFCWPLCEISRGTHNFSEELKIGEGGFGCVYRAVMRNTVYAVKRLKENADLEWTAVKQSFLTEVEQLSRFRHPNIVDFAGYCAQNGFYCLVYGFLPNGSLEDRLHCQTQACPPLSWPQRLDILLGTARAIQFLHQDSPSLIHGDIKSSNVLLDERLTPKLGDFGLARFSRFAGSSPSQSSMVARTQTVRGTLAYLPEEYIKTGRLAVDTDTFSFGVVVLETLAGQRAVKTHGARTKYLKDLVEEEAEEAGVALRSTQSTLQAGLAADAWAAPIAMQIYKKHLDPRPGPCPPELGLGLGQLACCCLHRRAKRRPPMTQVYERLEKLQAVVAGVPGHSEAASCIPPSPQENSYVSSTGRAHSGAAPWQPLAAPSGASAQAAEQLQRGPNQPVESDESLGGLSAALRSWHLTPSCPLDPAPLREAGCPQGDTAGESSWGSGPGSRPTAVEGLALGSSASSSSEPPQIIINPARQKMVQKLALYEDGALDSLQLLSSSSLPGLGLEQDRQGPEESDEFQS
Cyclin-dependent kinase 18 (Homo sapiens), sequence (Q07002 whole entry): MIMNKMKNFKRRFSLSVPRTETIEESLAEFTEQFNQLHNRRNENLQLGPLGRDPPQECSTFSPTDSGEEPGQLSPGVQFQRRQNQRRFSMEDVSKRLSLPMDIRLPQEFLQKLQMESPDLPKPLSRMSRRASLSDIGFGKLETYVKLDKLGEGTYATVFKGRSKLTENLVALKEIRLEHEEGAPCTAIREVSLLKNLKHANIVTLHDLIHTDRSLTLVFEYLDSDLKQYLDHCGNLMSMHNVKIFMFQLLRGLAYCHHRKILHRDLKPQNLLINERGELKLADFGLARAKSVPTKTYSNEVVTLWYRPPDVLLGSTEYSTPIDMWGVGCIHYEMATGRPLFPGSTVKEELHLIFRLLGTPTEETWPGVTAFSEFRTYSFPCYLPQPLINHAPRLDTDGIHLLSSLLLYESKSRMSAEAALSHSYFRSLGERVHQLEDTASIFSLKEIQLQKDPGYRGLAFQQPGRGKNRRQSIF
Epithelial discoidin domain-containing receptor 1 (Homo sapiens), sequence (Q08345 whole entry, the tested form may be a part): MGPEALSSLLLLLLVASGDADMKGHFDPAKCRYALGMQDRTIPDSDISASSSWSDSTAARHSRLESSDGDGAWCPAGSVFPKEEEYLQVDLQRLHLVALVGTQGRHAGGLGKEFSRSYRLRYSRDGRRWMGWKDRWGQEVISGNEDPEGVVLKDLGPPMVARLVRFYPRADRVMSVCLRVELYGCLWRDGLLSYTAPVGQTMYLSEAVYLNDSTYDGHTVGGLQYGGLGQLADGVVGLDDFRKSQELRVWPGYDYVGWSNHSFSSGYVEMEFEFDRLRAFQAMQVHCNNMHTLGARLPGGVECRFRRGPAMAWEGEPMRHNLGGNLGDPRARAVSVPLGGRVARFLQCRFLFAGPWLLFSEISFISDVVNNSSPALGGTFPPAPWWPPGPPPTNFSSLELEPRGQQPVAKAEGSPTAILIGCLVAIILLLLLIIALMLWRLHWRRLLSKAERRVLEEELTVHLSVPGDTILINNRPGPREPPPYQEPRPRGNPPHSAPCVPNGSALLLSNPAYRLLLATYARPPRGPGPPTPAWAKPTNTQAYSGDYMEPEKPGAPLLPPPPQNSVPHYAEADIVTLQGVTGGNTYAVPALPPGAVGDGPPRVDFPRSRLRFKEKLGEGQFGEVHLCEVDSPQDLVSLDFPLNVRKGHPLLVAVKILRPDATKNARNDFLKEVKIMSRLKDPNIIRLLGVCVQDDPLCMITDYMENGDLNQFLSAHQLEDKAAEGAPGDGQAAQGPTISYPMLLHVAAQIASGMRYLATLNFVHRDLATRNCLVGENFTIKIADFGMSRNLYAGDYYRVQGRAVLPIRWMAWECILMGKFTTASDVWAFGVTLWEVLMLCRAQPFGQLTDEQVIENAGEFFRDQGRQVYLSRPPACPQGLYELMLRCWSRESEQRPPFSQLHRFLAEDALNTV
Serine/threonine-protein kinase MARK2 (Homo sapiens), sequence (Q7KZI7 whole entry): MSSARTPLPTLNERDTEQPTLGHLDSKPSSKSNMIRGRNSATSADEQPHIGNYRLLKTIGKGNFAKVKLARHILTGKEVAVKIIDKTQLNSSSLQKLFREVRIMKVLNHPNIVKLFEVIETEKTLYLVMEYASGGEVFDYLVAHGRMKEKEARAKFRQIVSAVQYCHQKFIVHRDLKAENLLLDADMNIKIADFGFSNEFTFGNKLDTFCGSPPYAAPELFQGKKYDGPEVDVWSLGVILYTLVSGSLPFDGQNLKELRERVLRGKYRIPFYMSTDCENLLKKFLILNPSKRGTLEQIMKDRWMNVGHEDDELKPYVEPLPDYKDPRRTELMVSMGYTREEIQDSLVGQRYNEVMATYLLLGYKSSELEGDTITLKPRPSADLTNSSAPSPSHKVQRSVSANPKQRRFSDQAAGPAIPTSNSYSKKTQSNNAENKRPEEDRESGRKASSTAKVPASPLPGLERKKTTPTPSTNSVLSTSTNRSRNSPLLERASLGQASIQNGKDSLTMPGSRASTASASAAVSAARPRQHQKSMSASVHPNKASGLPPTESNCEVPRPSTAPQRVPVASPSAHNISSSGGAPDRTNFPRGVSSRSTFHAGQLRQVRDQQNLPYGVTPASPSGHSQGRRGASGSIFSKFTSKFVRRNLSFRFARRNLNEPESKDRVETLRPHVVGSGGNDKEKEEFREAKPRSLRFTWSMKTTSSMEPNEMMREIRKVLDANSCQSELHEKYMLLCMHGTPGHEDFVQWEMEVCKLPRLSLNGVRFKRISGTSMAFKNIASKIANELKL
Serine/threonine-protein kinase 24 (Homo sapiens), sequence (Q9Y6E0 whole entry, looked up, the tested form may be a part): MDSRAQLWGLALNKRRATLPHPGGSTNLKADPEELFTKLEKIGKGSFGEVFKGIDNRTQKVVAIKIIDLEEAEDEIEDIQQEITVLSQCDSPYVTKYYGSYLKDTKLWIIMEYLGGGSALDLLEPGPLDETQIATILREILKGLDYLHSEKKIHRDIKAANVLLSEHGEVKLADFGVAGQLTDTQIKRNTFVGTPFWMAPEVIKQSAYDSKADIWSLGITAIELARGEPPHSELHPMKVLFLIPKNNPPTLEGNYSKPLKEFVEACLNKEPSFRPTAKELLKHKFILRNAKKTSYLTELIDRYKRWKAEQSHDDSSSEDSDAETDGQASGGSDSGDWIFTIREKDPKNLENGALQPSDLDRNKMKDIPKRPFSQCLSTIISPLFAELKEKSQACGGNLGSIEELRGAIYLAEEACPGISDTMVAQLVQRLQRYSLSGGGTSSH

CCN1CCN(Cc2ccc(NC(=O)c3ccc(C)c(Oc4ccnc5[nH]ccc45)c3)cc2C(F)(F)F)CC1 was tested, and the inhibition [1] was “inactive”, the inhibition [2] was 1.8% and the inhibition [3] was 2.5%. For the same compound, the inhibition [4] was -7.8% and the percent of control [5] was 0.05%.

Compound CCN1CCN(Cc2ccc(NC(=O)c3ccc(C)c(/C=C/c4cnc5[nH]ccc5c4OC)c3)cc2C(F)(F)F)CC1 has an inhibition [6] of 59%.

With CNc1cc(Oc2cc(C(=O)Nc3cc(N4CCN(C)CC4)cc(C(F)(F)F)c3)ccc2C)ncn1 the inhibition [7] was 15.1%.
